Usually mortality stands for the share of the test organisms that died.

Read-outs that look alike come from different tables or passages of the source.

One data set deals with two-spotted spider mites. Description: Test Example 1: acaricidal activity, dipping of kidneybean leaves infested with two-spotted spider mites. It is filed as in vivo. The settings on record: for activity at 1.25 ppm: 1.25 p.p.m.; for activity at 2.5 ppm: 2.5 p.p.m.; for activity at 5 ppm / activity at 10 ppm / activity at 20 ppm: read-out: acaricidal activity (%); for activity at 0.04 ppm: 0.04 p.p.m.; for activity at 0.08 ppm: 0.08 p.p.m.; for activity at 0.16 ppm: 0.16 p.p.m.; for activity at 0.31 ppm: 0.31 p.p.m.; for activity at 0.63 ppm: 0.63 p.p.m.

Another data set in a line: Solubility in solvents. It is filed as physicochemical. The settings on record: "do." = same as A1.
Data set [1] is described as follows: Alcohol solution, neutralization titration method (pKa). Type of data set: physicochemical. From the text: |Alcohol solution, |neutralization pH ranging |titration method
The next data set deals with European red mites. Description: Test Example 2: spraying of apple leaves infested with European red mites. Type of data set: in vivo. Particulars: 5 days after spraying, non-treated 88/102. How it is done: An emulsifiable concentrate containing 20% of a of a crude B-41, which had been obtained by purifying two times according to alumina column chromatography the brown oily substance prepared in Example 1, was diluted to a given concentration to prepare a chemical solution. This chemical solution was sprayed to apple leaves infested with about 100 European red mites and, 5 days thereafter, the number of living mites was counted.

A further data set concerns citrus red mites. Description: Test Example 3: acaricidal activity, spraying of orange leaves infested with citrus red mites. Type of data set: in vivo. Particulars: after 24 hours. How it is done: This chemical solution was sprayed to orange leaves infested with citrus red mites, and the acaricidal activity (%) after 24 hours was calculated.
The test system of another data set is rice stem borer. Description: Test Example 5: mortality of rice stem borer larvae in rice plants. It is filed as in vivo, rice stem borer of 1st generation. The settings on record: 120 h, read-out: mortality (%) of the larvae. How it is done: Eggs of rice stem borer of 1st generation were inoculated to rice plants (variety "Kinmaze"), which had been planted in 200 cm^2 pots, and were hatched to allow the larvae invade the stems. Subsequently, a wettable powder containing 40% of a crude B-41, which had been obtained by purifying two times according to alumina column chromatography the brown oily substance prepared in Example 1, was diluted to a given concentration and then sprayed to the plants in a proportion of 100 cc. per pot. 5 Days thereafter, the stems were split to examine the alive and dead of the larvae, and the mortality (%) of the larvae was calculated.

As for `COC1CC2(O)C(CO)=CC=CC(C)CC(C)=CCC3CC(CC4(CCC(C)C(C)O4)O3)OC(=O)C2C=C1C` (stereo not drawn) [A1], in the data set with two-spotted spider mites (after 24 hours), the activity at 1.25 ppm stood at 0% and the activity at 2.5 ppm is 19.9%. In the data set on two-spotted spider mites (5 p.p.m., after 24 hours), the activity at 5 ppm turned out to be 100%. Besides, in the data set with two-spotted spider mites (10 p.p.m., after 24 hours), the activity at 10 ppm worked out at 100%. Further, in the data set on two-spotted spider mites (20 p.p.m., after 24 hours), the activity at 20 ppm worked out at 100%. For the same molecule, in the data set “Solubility in solvents” (n-hexane, benzene, acetone, ethanol and chloroform), the “Solubility in organic solvents ("easily soluble in n-hexane, benzene, acetone, ethanol and chloroform")” value is on record as “easily”. Moreover, the “Solubility in water ("Difficultly soluble in water")” value in “Solubility in solvents” (water) is listed as “Difficultly”. The “pKa (No pKa at pH ranging from 2 to 12)” value in data set [1] is given as “No pKa”.
With `CC1=CCC2CC(CC3(CCC(C)C(C)O3)O2)OC(=O)C2C=C(C)C(O)C3OCC(=CC=CC(C)C1)C23O` (stereo not drawn) [A3], in the data set on two-spotted spider mites (after 24 hours), the activity at 0.04 ppm amounted to 15.2%, the activity at 0.08 ppm was determined as 100%, the activity at 0.16 ppm was found to be 98.2% and the activity at 0.31 ppm stood at 100%. Also, in the data set on two-spotted spider mites (after 24 hours), the activity at 0.63 ppm stood at 100%, the activity at 1.25 ppm amounted to 100% and the activity at 2.5 ppm turned out to be 100%. In addition, the activity at 5 ppm in the data set on two-spotted spider mites (5 p.p.m., after 24 hours) came to 100%. In addition, in the data set with two-spotted spider mites (10 p.p.m., after 24 hours), the activity at 10 ppm worked out at 100%. Besides, the activity at 20 ppm in the data set on two-spotted spider mites (20 p.p.m., after 24 hours) was 100%. The “pKa (No pKa at pH ranging from 2 to 12)” value in data set [1] is recorded as “do”.
For `CCC1OC2(CCC1C)CC1CC(CC=C(C)CC(C)C=CC=C3COC4C(O)C(C)=CC(C(=O)O1)C34O)O2` (stereo not drawn) [A4], in the data set on two-spotted spider mites (after 24 hours), the activity at 0.04 ppm stood at 21.3%, the activity at 0.08 ppm amounted to 100%, the activity at 0.16 ppm worked out at 100% and the activity at 0.31 ppm came to 100%. For the same molecule, in the data set with two-spotted spider mites (after 24 hours), the activity at 0.63 ppm came to 100%, the activity at 1.25 ppm is 100% and the activity at 2.5 ppm was 100%. In the data set with two-spotted spider mites (5 p.p.m., after 24 hours), the activity at 5 ppm was 100%. Further, the activity at 10 ppm in the data set on two-spotted spider mites (10 p.p.m., after 24 hours) came to 100%. In the data set with two-spotted spider mites (20 p.p.m., after 24 hours), the activity at 20 ppm was 100%.
In the data set on two-spotted spider mites (after 24 hours), `COC1C(C)=CC2C(=O)OC3CC(CC=C(C)CC(C)C=CC=C4COC1C42O)OC1(CCC(C)C(C)O1)C3` (stereo not drawn) [B2] yielded an activity at 0.08 ppm of 0%, an activity at 0.16 ppm of 16.6%, an activity at 0.31 ppm of 80.5% and an activity at 0.63 ppm of 100%. In the data set with two-spotted spider mites (after 24 hours), this molecule displayed an activity at 1.25 ppm of 100% and an activity at 2.5 ppm of 100%. Further, in the data set with two-spotted spider mites (5 p.p.m., after 24 hours), the activity at 5 ppm was determined as 100%. In addition, the activity at 10 ppm in the data set on two-spotted spider mites (10 p.p.m., after 24 hours) was determined as 100%. Moreover, the activity at 20 ppm with two-spotted spider mites (20 p.p.m., after 24 hours) came to 100%. Moreover, the “pH at which crystallization took place in the titration” value in data set [1] (alcohol solution, neutralization titration) is recorded as roughly 8.7.
On to `CCC1OC2(CCC1C)CC1CC(CC=C(C)CC(C)C=CC=C3COC4C(OC)C(C)=CC(C(=O)O1)C34O)O2` (stereo not drawn) [B3], for which, in the data set on two-spotted spider mites (after 24 hours), the activity at 0.04 ppm stood at 0%, the activity at 0.08 ppm is 18.3%, the activity at 0.16 ppm was 74.1% and the activity at 0.31 ppm amounted to 100%. Moreover, in the data set on two-spotted spider mites (after 24 hours), the activity at 0.63 ppm stood at 100%, the activity at 1.25 ppm worked out at 100% and the activity at 2.5 ppm amounted to 100%. The activity at 5 ppm with two-spotted spider mites (5 p.p.m., after 24 hours) came to 100%. In the data set on two-spotted spider mites (10 p.p.m., after 24 hours), the activity at 10 ppm came to 100%. Further, the activity at 20 ppm in the data set on two-spotted spider mites (20 p.p.m., after 24 hours) is 100%.
On to `CC1=CCC2CC(CC3(CCC(C)C(C)O3)O2)OC(=O)C2C=C(COC(=O)c3ccc[nH]3)C(O)C3OCC(=CC=CC(C)C1)C23O` (stereo not drawn) [C1], for which, in the data set with two-spotted spider mites (after 24 hours), the activity at 0.04 ppm was 51.8%, the activity at 0.08 ppm turned out to be 100%, the activity at 0.16 ppm was determined as 100% and the activity at 0.31 ppm turned out to be 100%. In the data set on two-spotted spider mites (after 24 hours), the activity at 0.63 ppm was found to be 100%, the activity at 1.25 ppm stood at 100% and the activity at 2.5 ppm was 100%. For the same molecule, the activity at 5 ppm with two-spotted spider mites (5 p.p.m., after 24 hours) came to 100%. In addition, in the data set on two-spotted spider mites (10 p.p.m., after 24 hours), the activity at 10 ppm came to 100%. Moreover, the activity at 20 ppm in the data set with two-spotted spider mites (20 p.p.m., after 24 hours) worked out at 100%. The “pKa (No pKa at pH ranging from 2 to 12)” value in data set [1] was “No pKa”.
In the data set with two-spotted spider mites (after 24 hours), `CCC1OC2(CCC1C)CC1CC(CC=C(C)CC(C)C=CC=C3COC4C(O)C(COC(=O)c5ccc[nH]5)=CC(C(=O)O1)C34O)O2` (stereo not drawn) [C2] registered an activity at 0.04 ppm of 97.3%, an activity at 0.08 ppm of 100%, an activity at 0.16 ppm of 100% and an activity at 0.31 ppm of 100%. Besides, in the data set with two-spotted spider mites (after 24 hours), the activity at 0.63 ppm was determined as 100%, the activity at 1.25 ppm was found to be 100% and the activity at 2.5 ppm was 100%. The activity at 5 ppm in the data set with two-spotted spider mites (5 p.p.m., after 24 hours) amounted to 100%. In the data set with two-spotted spider mites (10 p.p.m., after 24 hours), the activity at 10 ppm was 100%. Moreover, the activity at 20 ppm in the data set on two-spotted spider mites (20 p.p.m., after 24 hours) came out at 100%. For the same molecule, the “pKa (No pKa at pH ranging from 2 to 12)” value in data set [1] was “do”.
As to `OC(c1ccc(Cl)cc1)(c1ccc(Cl)cc1)C(Cl)(Cl)Cl` [Kelthane, 1,1-Bis-(p-chlorophenyl)-2,2,2-trichloroethanol], the “number of mites living at counting / before spraying (given as fraction)” value is reported as 56/128 with European red mites (50 p.m.m. [sic]), 8/103 with European red mites (100 p.p.m.) and 0/97 in the data set on European red mites (200 p.p.m.). In addition, the activity at 5 ppm with two-spotted spider mites (24 h) came out at 0%. Further, in the data set with two-spotted spider mites (24 h), the activity at 10 ppm was 56.4%. Besides, the activity at 20 ppm in the data set with two-spotted spider mites (24 h) is 100%; in the data set with citrus red mites (20 p.p.m.), 90.9%. The same molecule had an activity at 7 ppm in the data set with citrus red mites (7 p.p.m.) of 30.8%.
Turning to `COP(=O)(OC)OC=C(Cl)Cl` [Reference **], in the data set with rice stem borer, the mortality at 50 ppm was 25.5% and the mortality at 100 ppm is 82.1%.

The record behind these values is patent US3950360A, “Antibiotic substances” (priority 1972, dated 1976).
